In PubChem BioAssay AID256 (DTP/NCI, 2004):
“And” between values parts separate entries of the source, which are not always exact repeats. Equal values may be shown once. Toxic doses and inconclusive results are not listed.

Test system: CD2F1 mice, L1210 leukemia ip, survival T/C
Assay: NCI In Vivo Anticancer Drug Screen. Data for tumor model L1210 Leukemia (intraperitoneal) in CD2F1 (CDF1) mice
Conditions: higher = longer survival
Method in brief: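 Activity against a transplanted murine tumor was judged by comparing the compound group with a vehicle group. The outcome in the treated animals was divided by that in the controls.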

[1] = endpoint: mean survival time, dose: 100.0 mg/kg/injection, schedule: Q04DX003 (ip), vehicle: saline with Tween-80
[2] = endpoint: mean survival time, dose: 200.0 mg/kg/injection, schedule: Q04DX003 (ip), vehicle: saline with Tween-80
[3] = endpoint: mean survival time, dose: 400.0 mg/kg/injection, schedule: Q04DX003 (ip), vehicle: saline with Tween-80
[4] = endpoint: mean survival time, dose: 100.0 mg/kg/injection, schedule: Q04DX002 (ip), vehicle: saline with Tween-80
[5] = endpoint: mean survival time, dose: 200.0 mg/kg/injection, schedule: Q04DX002 (ip), vehicle: saline with Tween-80
[6] = endpoint: mean survival time, dose: 50.0 mg/kg/injection, schedule: Q04DX002 (ip), vehicle: saline with Tween-80
[7] = endpoint: mean survival time, dose: 25.0 mg/kg/injection, schedule: Q01DX001 (ip), vehicle: saline
[8] = endpoint: mean survival time, dose: 50.0 mg/kg/injection, schedule: Q01DX001 (ip), vehicle: saline
[9] = endpoint: mean survival time, dose: 12.5 mg/kg/injection, schedule: Q01DX009 (ip), vehicle: saline with Tween-80
[10] = endpoint: mean survival time, dose: 25.0 mg/kg/injection, schedule: Q01DX009 (ip), vehicle: saline with Tween-80

`COC1/C=C/C=C(/C)Cc2cc(O)c(Cl)c(c2)N(C)C(=O)CC(OC(=O)C(C)C)C2(C)OC2C(C)C2CC1(O)NC(=O)O2` (configuration not stated) was tested, and the T/C (endpoint: mean survival time, dose: 0.12 mg/kg/injection, schedule: Q01DX009 (ip), vehicle: saline + alcohol) was 111 % of control, the T/C (endpoint: mean survival time, dose: 0.5 mg/kg/injection, schedule: Q01DX009 (ip), vehicle: saline + alcohol) was 111 % of control and the T/C (endpoint: mean survival time, dose: 1.0 mg/kg/injection, schedule: Q01DX009 (ip), vehicle: saline + alcohol) was 122 % of control. The T/C (endpoint: mean survival time, dose: 2.0 mg/kg/injection, schedule: Q01DX009 (ip), vehicle: saline + alcohol) was 90 % of control, the T/C (endpoint: median survival time, dose: 0.06 mg/kg/injection, schedule: Q01DX009 (ip), vehicle: saline + alcohol) was 117 % of control and the T/C (endpoint: median survival time, dose: 0.12 mg/kg/injection, schedule: Q01DX009 (ip), vehicle: saline + alcohol) was 117 % of control. For the same compound, the T/C (endpoint: median survival time, dose: 0.5 mg/kg/injection, schedule: Q01DX009 (ip), vehicle: saline + alcohol) was 122 % of control, the T/C (endpoint: median survival time, dose: 1.0 mg/kg/injection, schedule: Q01DX009 (ip), vehicle: saline + alcohol) was 120 % of control and the T/C (endpoint: median survival time, dose: 2.0 mg/kg/injection, schedule: Q01DX009 (ip), vehicle: saline + alcohol) was 123 % of control.

For `O=C1CCCC1CC1CCCC1=O` (configuration not stated), the T/C (endpoint: mean survival time, dose: 100.0 mg/kg/injection, schedule: Q01DX009 (ip), vehicle: saline with Tween-80) was 102 % of control, the T/C (endpoint: mean survival time, dose: 200.0 mg/kg/injection, schedule: Q01DX009 (ip), vehicle: saline with Tween-80) was 106 % of control and the T/C (endpoint: mean survival time, dose: 400.0 mg/kg/injection, schedule: Q01DX009 (ip), vehicle: saline with Tween-80) was 106 % of control.

In the case of `COc1ccc(C(OCC2OC(n3cc(C)c(=O)[nH]c3=O)CC2OP(=O)(O)OCC2OC(n3cc(C)c(=O)[nH]c3=O)CC2OP(=O)(O)OCC2OC(n3cc(C)c(=O)[nH]c3=O)CC2OP(=O)(O)OCC2OC(n3cc(C)c(=O)[nH]c3=O)CC2OP(=O)(O)OCC2OC(n3ccc(N)nc3=O)C(O)C2O)(c2ccccc2)c2ccccc2)cc1` (configuration not stated), the T/C (endpoint: median survival time, dose: 25.0 mg/kg/injection, schedule: Q01DX005 (ip), vehicle: saline) is reported as 108 % of control, the T/C (endpoint: median survival time, dose: 50.0 mg/kg/injection, schedule: Q01DX005 (ip), vehicle: saline) is reported as 122 % of control and the T/C (endpoint: median survival time, dose: 400.0 mg/kg/injection, schedule: Q01DX005 (ip), vehicle: saline) is reported as 162 % of control.

For `COc1cc2c(cc1OC)C1CCN3C(=O)CCC3N1CC2` (configuration not stated), the T/C [1] was 102 % of control, the T/C [2] was 102 % of control and the T/C [3] was 108 % of control.

In the case of `COc1cccc2c1C(=O)c1c(O)c3c(c(O)c1C2=O)C[C@@](O)(C(=O)CO)C[C@@H]3OC1CC(N(C)C)C(O)C(C)O1` (some centres not stated), the T/C (endpoint: mean survival time, dose: 0.25 mg/kg/injection, schedule: Q01DX009 (ip), vehicle: saline) is reported as 118 % of control and 108 % of control, the T/C (endpoint: mean survival time, dose: 0.5 mg/kg/injection, schedule: Q01DX009 (ip), vehicle: saline) is reported as 117 % of control and 121 % of control and the T/C (endpoint: mean survival time, dose: 1.0 mg/kg/injection, schedule: Q01DX009 (ip), vehicle: saline) is reported as 115 % of control and 124 % of control. The T/C (endpoint: mean survival time, dose: 2.0 mg/kg/injection, schedule: Q01DX009 (ip), vehicle: saline) was 97 % of control and 102 % of control.

`CC1(C)C2(C)CC12C` (configuration not stated) was tested, and the T/C (endpoint: mean survival time, dose: 1.25 mg/kg/injection, schedule: Q04DX002 (ip), vehicle: saline with Tween-80) was 97 % of control, the T/C (endpoint: mean survival time, dose: 2.5 mg/kg/injection, schedule: Q04DX002 (ip), vehicle: saline with Tween-80) was 97 % of control and the T/C (endpoint: mean survival time, dose: 5.0 mg/kg/injection, schedule: Q04DX002 (ip), vehicle: saline with Tween-80) was 97 % of control. For the same compound, the T/C (endpoint: mean survival time, dose: 10.0 mg/kg/injection, schedule: Q04DX002 (ip), vehicle: saline with Tween-80) was 97 % of control.

`Oc1ccc(/C=N/NC(=S)Nc2ccccc2)nc1` was tested, and the T/C [4] was 106 % of control, the T/C [5] was 106 % of control and the T/C (endpoint: mean survival time, dose: 400.0 mg/kg/injection, schedule: Q04DX002 (ip), vehicle: saline with Tween-80) was 95 % of control.

`N#CC(=N)C(C#N)C#N` was tested, and the T/C (endpoint: mean survival time, dose: 12.5 mg/kg/injection, schedule: Q04DX002 (ip), vehicle: saline with Tween-80) was 93 % of control, the T/C (endpoint: mean survival time, dose: 25.0 mg/kg/injection, schedule: Q04DX002 (ip), vehicle: saline with Tween-80) was 93 % of control and the T/C [6] was 108 % of control.

For `Nc1cccc(OCC(O)CN2CCN(c3ccccc3)CC2)c1` (configuration not stated), the T/C [6] was 93 % of control, the T/C [4] was 89 % of control and 94 % of control and the T/C [5] was 112 % of control.

For `CC(=O)N(C)O`, the T/C (endpoint: median survival time, dose: 12.5 mg/kg/injection, schedule: Q01DX009 (ip), vehicle: saline with Tween-80) was 102 % of control, the T/C (endpoint: median survival time, dose: 25.0 mg/kg/injection, schedule: Q01DX009 (ip), vehicle: saline with Tween-80) was 102 % of control and 103 % of control and the T/C (endpoint: median survival time, dose: 50.0 mg/kg/injection, schedule: Q01DX009 (ip), vehicle: saline with Tween-80) was 102 % of control and 103 % of control. For the same compound, the T/C (endpoint: median survival time, dose: 100.0 mg/kg/injection, schedule: Q01DX009 (ip), vehicle: saline with Tween-80) was 106 % of control, the T/C (endpoint: median survival time, dose: 200.0 mg/kg/injection, schedule: Q01DX009 (ip), vehicle: saline with Tween-80) was 156 % of control and the T/C (endpoint: median survival time, dose: 400.0 mg/kg/injection, schedule: Q01DX009 (ip), vehicle: saline with Tween-80) was 176 % of control.

In the case of `CCCCCCCOc1ccc(N=[N+]([O-])c2ccc(OCCCCCCC)cc2)cc1`, the T/C [1] is reported as 95 % of control, the T/C [2] is reported as 91 % of control and the T/C [3] is reported as 89 % of control.

For `CCN(CCS)Cc1ccccc1`, the T/C [1] was 98 % of control.

In the case of `Cc1cc(=O)n2cc(Br)ccc2n1`, the T/C (endpoint: mean survival time, dose: 12.5 mg/kg/injection, schedule: Q01DX001 (ip), vehicle: saline) is reported as 108 % of control, the T/C [7] is reported as 107 % of control and the T/C [8] is reported as 96 % of control.

With `CN1C(=O)C(C)(C)C(=O)C1(C)C` the T/C [7] was 103 % of control, the T/C [8] was 104 % of control and the T/C (endpoint: mean survival time, dose: 100.0 mg/kg/injection, schedule: Q01DX001 (ip), vehicle: saline) was 103 % of control.

With `NCCc1nc[nH]c1[N+](=O)[O-]` the T/C (endpoint: mean survival time, dose: 12.5 mg/kg/injection, schedule: Q01DX005 (ip), vehicle: water) was 106 % of control, the T/C (endpoint: mean survival time, dose: 25.0 mg/kg/injection, schedule: Q01DX005 (ip), vehicle: water) was 97 % of control and the T/C (endpoint: mean survival time, dose: 50.0 mg/kg/injection, schedule: Q01DX005 (ip), vehicle: water) was 97 % of control. For the same compound, the T/C (endpoint: mean survival time, dose: 100.0 mg/kg/injection, schedule: Q01DX005 (ip), vehicle: water) was 103 % of control and the T/C (endpoint: mean survival time, dose: 200.0 mg/kg/injection, schedule: Q01DX005 (ip), vehicle: water) was 92 % of control.

In the case of `COc1ccc2nc3c(Cl)cccc3c(Oc3ccccc3)c2c1`, the T/C (endpoint: mean survival time, dose: 100.0 mg/kg/injection, schedule: Q01DX001 (ip), vehicle: saline with Tween-80) is reported as 94 % of control, the T/C (endpoint: mean survival time, dose: 200.0 mg/kg/injection, schedule: Q01DX001 (ip), vehicle: saline with Tween-80) is reported as 92 % of control and the T/C (endpoint: mean survival time, dose: 400.0 mg/kg/injection, schedule: Q01DX001 (ip), vehicle: saline with Tween-80) is reported as 101 % of control.

`COC(COS(=O)(=O)c1ccc(Br)cc1)(c1ccccc1)c1ccccc1` was tested, and the T/C [9] was 95 % of control, the T/C [10] was 88 % of control and the T/C (endpoint: mean survival time, dose: 50.0 mg/kg/injection, schedule: Q01DX009 (ip), vehicle: saline with Tween-80) was 88 % of control.

`CNC(=O)/C=C/C1=CN2C(=O)c3ccc(C)c(O)c3NC(OC)C2C1` (configuration not stated) was tested, and the T/C (endpoint: mean survival time, dose: 0.01 mg/kg/injection, schedule: Q01DX009 (ip), vehicle: saline) was 105 % of control and 108 % of control, the T/C (endpoint: mean survival time, dose: 0.02 mg/kg/injection, schedule: Q01DX009 (ip), vehicle: saline) was 95 % of control and the T/C (endpoint: mean survival time, dose: 0.03 mg/kg/injection, schedule: Q01DX009 (ip), vehicle: saline) was 112 % of control. For the same compound, the T/C (endpoint: mean survival time, dose: 0.05 mg/kg/injection, schedule: Q01DX009 (ip), vehicle: saline) was 100 % of control and 106 % of control and 108 % of control, the T/C (endpoint: mean survival time, dose: 0.1 mg/kg/injection, schedule: Q01DX009 (ip), vehicle: saline) was 115 % of control and 102 % of control and 106 % of control and the T/C (endpoint: mean survival time, dose: 0.2 mg/kg/injection, schedule: Q01DX009 (ip), vehicle: saline) was 115 % of control and 100 % of control. For the same compound, the T/C (endpoint: mean survival time, dose: 0.4 mg/kg/injection, schedule: Q01DX009 (ip), vehicle: saline) was 112 % of control.

With `C/C=C/CC(C)C(O)C1C(=O)NC(CC)C(=O)N(C)CC(=O)N(C)C(CC(C)C)C(=O)NC(C(C)C)C(=O)N(C)C(CC(C)C)C(=O)NC(C)C(=O)NC(C)C(=O)N(C)C(CC(C)C)C(=O)N(C)C(CC(C)C)C(=O)N(C)C(C(C)C)C(=O)N1C` (configuration not stated) the T/C (endpoint: median survival time, dose: 25.0 mg/kg/injection, schedule: Q01DX009 (ip), vehicle: Klucel (hydroxypropylcellulose) (HPC)) was 102 % of control, the T/C (endpoint: median survival time, dose: 50.0 mg/kg/injection, schedule: Q01DX009 (ip), vehicle: Klucel (hydroxypropylcellulose) (HPC)) was 107 % of control and the T/C (endpoint: median survival time, dose: 100.0 mg/kg/injection, schedule: Q01DX009 (ip), vehicle: Klucel (hydroxypropylcellulose) (HPC)) was 106 % of control.

In the case of `O=P(N1CCCC1)(N1CCCC1)N1CCCC1.O=[N+]([O-])O.O=[N+]([O-])O.[O]=[U]=[O]`, the T/C (endpoint: mean survival time, dose: 3.12 mg/kg/injection, schedule: Q04DX003 (ip), vehicle: Klucel (hydroxypropylcellulose) (HPC)) is reported as 102 % of control and the T/C (endpoint: mean survival time, dose: 12.5 mg/kg/injection, schedule: Q04DX003 (ip), vehicle: Klucel (hydroxypropylcellulose) (HPC)) is reported as 102 % of control.

With `C[N+](C)(C)/N=C\c1cccc2ccccc12` the T/C (endpoint: mean survival time, dose: 6.25 mg/kg/injection, schedule: Q01DX009 (ip), vehicle: saline with Tween-80) was 111 % of control, the T/C [9] was 107 % of control and the T/C [10] was 104 % of control.
